In patent publication US8426588B2, “Phenylalanine derivatives” (Ajinomoto Co, Inc., priority 2000, dated 2013):

Assays:
integrin α4β1 = target: T1, integrin α4β1 (Homo sapiens, UniProt P05556+P13612); test: VCAM antagonist activity (VCAM-1/α4β1 binding assay), Jurkat cells binding to VCAM-1; type: cell-based; settings: Jurkat human T cells binding to recombinant human VCAM-1; read-out: VCAM antagonistic activity (IC50) α4β1
T1 construct: cell strain Jurkat (ATCC TIB-152) of human T cells, known to express integrin α4β1; endogenous in cells; host or cells: Jurkat (ATCC TIB-152)
T1 sequence (P05556 21-798, one chain of several): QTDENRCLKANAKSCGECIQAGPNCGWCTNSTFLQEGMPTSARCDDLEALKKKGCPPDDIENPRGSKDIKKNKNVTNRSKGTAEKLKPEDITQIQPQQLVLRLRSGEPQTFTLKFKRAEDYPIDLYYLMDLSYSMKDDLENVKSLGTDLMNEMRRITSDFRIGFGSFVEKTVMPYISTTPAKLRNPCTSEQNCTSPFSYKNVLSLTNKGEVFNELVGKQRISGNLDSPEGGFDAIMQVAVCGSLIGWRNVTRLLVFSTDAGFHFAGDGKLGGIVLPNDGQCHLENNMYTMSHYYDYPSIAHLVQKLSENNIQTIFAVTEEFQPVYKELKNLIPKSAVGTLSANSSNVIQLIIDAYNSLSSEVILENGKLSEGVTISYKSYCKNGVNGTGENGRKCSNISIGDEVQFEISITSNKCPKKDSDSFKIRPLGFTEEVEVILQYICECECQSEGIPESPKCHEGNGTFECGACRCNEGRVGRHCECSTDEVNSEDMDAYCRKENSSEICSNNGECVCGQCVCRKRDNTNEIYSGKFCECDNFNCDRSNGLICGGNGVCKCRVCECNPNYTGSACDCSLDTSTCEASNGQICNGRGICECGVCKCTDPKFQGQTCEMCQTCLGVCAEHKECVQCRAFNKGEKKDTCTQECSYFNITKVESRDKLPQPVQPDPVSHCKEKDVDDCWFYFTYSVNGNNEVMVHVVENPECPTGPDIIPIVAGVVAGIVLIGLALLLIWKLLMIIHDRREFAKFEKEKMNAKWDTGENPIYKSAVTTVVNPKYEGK
Description: VCAM Antagonist Activity (VCAM-1/α4β1 Binding Assay)
The capacity of a test substance antagonistic to the binding of cell strain Jurkat (ATCC TIB-152) of human T cells, known to express integrin α4β1, to VCAM-1 was determined.
(§1) 100 μl/well of a solution (500 ng/ml) of recombinant human VCAM-1 (R & D systems) solution diluted with buffer A (0.1 M NaHCO3, pH 9.6) was added to a micro titer plate having 96 wells (Nunc Maxisorp). After the incubation at 4° C. overnight, unbound VCAM-1 was removed by washing once with PBS. After completion of the washing, a buffer (buffer B) obtained by diluting Block Ace (Dainippon Pharmaceutical Co., Ltd.) with PBS to ¼ concentration was added in an amount of 150 μl/well. After the incubation at room temperature for 1 hour, buffer B was removed and the plate was washed with PBS once.
Jurkat cells were washed with Dulbecco modified Eagle medium (SIGMA, hereinafter referred to as “DMEM”) twice and then incubated in DMEM containing 10 μg/ml of Calcein-AM (Wako Pure Chemical Industries, Ltd.) at 37° C. in dark place for 30 minutes to label with fluorescence. The cells were again suspended in a binding buffer (20 mM HEPES, DMEM containing 0.1% BSA).
(§2) 50 μl of a test substance of various concentrations obtained by the dilution with the binding buffer was added to the plate. Immediately thereafter, 50 μl (final volume: 100 μl/well) of the fluorescent Jurkat cells (4×10^6 cells/ml) were added thereto, and they were incubated in dark place at room temperature for 30 minutes. After the shaking on a plate shaker (IKA MTS-4) at 800 rpm for 30 seconds, the solution was immediately removed to remove the unbound cells. The fluorescence quantity of the bound cells remaining in the wells was determined with a fluorescent plate reader (Wallac 1920 ARVO multi-label counter) (filter excitation wave length: 485 nm, emission wave length: 535 nm). The fluorescent strength thus obtained is proportional to the number of Jurkat cells bound to VCAM-1 and remaining on the plate. The binding rate of each test material in various concentrations was determined while the fluorescent strength of the test material-free well was determined to be 100%.

integrin α4β7 = target: T2, integrin α4β7 (Homo sapiens, UniProt P13612+P26010); test: VCAM antagonistic activity (VCAM-1/α4β7 binding assay), RPMI-8866 cells binding to VCAM-1; type: cell-based; settings: RPMI-8866 human B lymphoma cells binding to recombinant human VCAM-1; binding buffer with 4 mM MnCl2
T2 construct: lymphoma cell strain RPMI-8866 of human B cells, known to express integrin α4β7; endogenous in cells; host or cells: RPMI-8866
T2 sequence (P13612 34-1032): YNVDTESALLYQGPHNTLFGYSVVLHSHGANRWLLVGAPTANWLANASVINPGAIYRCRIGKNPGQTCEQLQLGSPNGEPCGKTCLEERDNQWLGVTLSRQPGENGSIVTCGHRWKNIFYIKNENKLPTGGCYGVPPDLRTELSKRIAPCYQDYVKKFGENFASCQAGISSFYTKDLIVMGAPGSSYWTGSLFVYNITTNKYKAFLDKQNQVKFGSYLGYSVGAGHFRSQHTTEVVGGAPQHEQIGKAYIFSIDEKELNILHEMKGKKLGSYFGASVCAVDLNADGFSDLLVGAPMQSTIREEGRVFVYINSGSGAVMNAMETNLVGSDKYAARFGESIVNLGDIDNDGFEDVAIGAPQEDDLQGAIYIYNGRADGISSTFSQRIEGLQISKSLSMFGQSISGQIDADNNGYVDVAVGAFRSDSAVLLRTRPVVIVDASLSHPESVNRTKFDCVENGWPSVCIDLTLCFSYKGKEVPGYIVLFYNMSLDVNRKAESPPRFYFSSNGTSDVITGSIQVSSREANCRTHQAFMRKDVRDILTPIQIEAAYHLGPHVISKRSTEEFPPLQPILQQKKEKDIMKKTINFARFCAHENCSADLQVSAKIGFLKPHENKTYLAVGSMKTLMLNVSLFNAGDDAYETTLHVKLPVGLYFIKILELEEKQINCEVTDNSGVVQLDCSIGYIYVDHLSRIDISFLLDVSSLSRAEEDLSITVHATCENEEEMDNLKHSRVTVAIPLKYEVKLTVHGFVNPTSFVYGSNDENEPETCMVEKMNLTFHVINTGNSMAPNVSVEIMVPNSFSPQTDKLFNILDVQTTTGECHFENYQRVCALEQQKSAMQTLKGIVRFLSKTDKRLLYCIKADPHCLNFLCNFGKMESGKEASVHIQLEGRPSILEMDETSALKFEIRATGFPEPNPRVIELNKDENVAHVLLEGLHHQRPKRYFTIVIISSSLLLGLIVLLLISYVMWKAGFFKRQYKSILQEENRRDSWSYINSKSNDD
T2 sequence (P26010 20-798): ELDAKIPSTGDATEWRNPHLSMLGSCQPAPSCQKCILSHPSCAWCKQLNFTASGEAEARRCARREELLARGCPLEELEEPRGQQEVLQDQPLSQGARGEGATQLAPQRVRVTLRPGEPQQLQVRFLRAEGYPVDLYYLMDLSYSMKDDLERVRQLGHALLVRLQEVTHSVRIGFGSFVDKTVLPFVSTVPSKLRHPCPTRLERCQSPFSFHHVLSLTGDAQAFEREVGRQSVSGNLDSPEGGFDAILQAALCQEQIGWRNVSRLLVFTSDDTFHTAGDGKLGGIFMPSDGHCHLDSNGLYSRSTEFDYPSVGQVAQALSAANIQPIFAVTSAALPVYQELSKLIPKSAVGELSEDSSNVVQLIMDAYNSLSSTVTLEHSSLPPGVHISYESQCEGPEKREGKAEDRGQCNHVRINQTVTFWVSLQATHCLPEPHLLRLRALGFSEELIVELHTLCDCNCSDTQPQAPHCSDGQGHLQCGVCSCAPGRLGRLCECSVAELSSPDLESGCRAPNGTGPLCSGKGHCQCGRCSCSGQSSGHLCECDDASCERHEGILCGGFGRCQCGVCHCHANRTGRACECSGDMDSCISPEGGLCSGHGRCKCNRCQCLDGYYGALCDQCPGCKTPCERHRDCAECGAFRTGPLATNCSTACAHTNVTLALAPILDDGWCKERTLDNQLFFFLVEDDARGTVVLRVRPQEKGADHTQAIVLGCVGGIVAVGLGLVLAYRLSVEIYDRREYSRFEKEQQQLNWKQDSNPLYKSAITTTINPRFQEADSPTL
Description: VCAM Antagonistic Activity (VCAM-1/α4β7 Binding Assay)
The capacity of a test substance antagonistic to the binding of lymphoma cell strain RPMI-8866 of human B cells, known to express integrin α4β7, to VCAM-1 was determined.
as §1
RPMI-8866 cells were washed with DMEM twice and incubated in Dulbecco modified Eagle medium containing 10 μg/ml of Calcein-AM (Wako Pure Chemical Industries, Ltd.) (SIGMA, hereinafter referred to as “DMEM”) in dark place at 37° C. for 30 minutes to label with fluorescence. The cells were again suspended in a binding buffer (20 mM HEPES, DMEM containing 0.1% BSA) containing 4 mM of MnCl2.
as §2, with “RPMI-8866” for “Jurkat”, “1420” for “1920”

Row | IC50 (integrin α4β1) | IC50 (integrin α4β7) | SMILES
1 | 17 nM | 1.1 nM | Cn1c(=O)n(-c2ccc(C[C@H](NC(=O)c3c(Cl)cccc3Cl)C(=O)O)cc2)c(=O)c2cc(N)ccc21 [Example 107]
2 | 88 nM | 11 nM | CCN(CC)c1ccc2c(c1)c(=O)n(-c1ccc(C[C@H](NC(=O)c3c(Cl)cccc3Cl)C(=O)O)cc1)c(=O)n2C [Example 111]
3 | 52 nM | 1.6 nM | Cn1c(=O)n(-c2ccc(C[C@H](NC(=O)c3c(Cl)cccc3Cl)C(=O)O)cc2)c(=O)c2cc([N+]3(C)CCCC3)ccc21 [Example 113]
4 | 480 nM | 19 nM | O=C(N[C@@H](Cc1ccc(-n2c(=O)c3ccccc3n(Cc3ccc(Cl)cc3)c2=O)cc1)C(=O)O)c1c(Cl)cccc1Cl [Example 117]
5 | 570 nM | 12 nM | CN1CCC(=O)N(c2ccc(C[C@H](NC(=O)c3c(Cl)cccc3Cl)C(=O)O)cc2)C1=O [Example 135]
6 | 565 nM | 3 nM | O=C(N[C@@H](Cc1ccc(-n2c(=O)oc3ccccc3c2=O)cc1)C(=O)O)c1c(Cl)cccc1Cl [Example 136]
7 | 2120 nM | 11.2 nM | O=C(N[C@@H](Cc1ccc(-n2c(=O)oc3c(ccc4ccccc43)c2=O)cc1)C(=O)O)c1c(Cl)cccc1Cl [Example 137]
8 | 107 nM | 17 nM | COc1ccc2c(=O)n(-c3ccc(C[C@H](NC(=O)c4c(Cl)cccc4Cl)C(=O)O)cc3)c(=O)oc2c1 [Example 139]
9 | 210 nM | 9 nM | Nc1ccc2c(=O)n(-c3ccc(C[C@H](NC(=O)c4c(Cl)cccc4Cl)C(=O)O)cc3)c(=O)oc2c1 [Example 142]
10 | 107 nM | 6.5 nM | CN1C(=O)N(c2ccc(C[C@H](NC(=O)c3c(Cl)cccc3Cl)C(=O)O)cc2)Cc2ccccc21 [Example 147]
11 | 86 nM | 5.4 nM | COc1cccc2c(=O)n(-c3ccc(C[C@H](NC(=O)c4c(Cl)cccc4Cl)C(=O)O)cc3)c(=O)n(C)c12 [Example 180]
12 | 15 nM | 1 nM | Cc1cccc2c1c(=O)n(-c1ccc(C[C@H](NC(=O)c3c(Cl)cccc3Cl)C(=O)O)cc1)c(=O)n2C [Example 181]
13 | 113 nM | 6.2 nM | Cn1c(=O)n(-c2ccc(C[C@H](NC(=O)c3c(Cl)cccc3Cl)C(=O)O)cc2)c(=O)c2cccc(Cl)c21 [Example 182]
14 | 25 nM | 1.7 nM | Cn1c(=O)n(-c2ccc(C[C@H](NC(=O)c3c(Cl)cccc3Cl)C(=O)O)cc2)c(=O)c2cc(Cl)ccc21 [Example 183]
15 | 31 nM | 3.3 nM | COc1ccc2c(c1)c(=O)n(-c1ccc(C[C@H](NC(=O)c3c(Cl)cccc3Cl)C(=O)O)cc1)c(=O)n2C [Example 184]
16 | 12 nM | 2.7 nM | Cn1c(=O)n(-c2ccc(C[C@H](NC(=O)c3c(Cl)cccc3Cl)C(=O)O)cc2)c(=O)c2ccc(C(F)(F)F)cc21 [Example 185]
17 | 59 nM | 4.3 nM | Cc1cccc2c(=O)n(-c3ccc(C[C@H](NC(=O)c4c(Cl)cccc4Cl)C(=O)O)cc3)c(=O)n(C)c12 [Example 186]
18 | 26 nM | 3.2 nM | Cn1c(=O)n(-c2ccc(C[C@H](NC(=O)c3c(Cl)cccc3Cl)C(=O)O)cc2)c(=O)c2c(Cl)cccc21 [Example 187]
19 | 11 nM | 2.7 nM | COc1cc2c(=O)n(-c3ccc(C[C@H](NC(=O)c4c(Cl)cccc4Cl)C(=O)O)cc3)c(=O)n(C)c2cc1OC [Example 188]
20 | 18 nM | 1.1 nM | Cn1c(=O)n(-c2ccc(C[C@H](NC(=O)c3c(Cl)cccc3Cl)C(=O)O)cc2)c(=O)c2cc(F)ccc21 [Example 189]
